From patent US4017611A, “Control of insects with 3-hydroxymethacrylic acid methyl ester dimethylthionophosphate” (priority 1970, dated 1977)
Like-named read-outs stand apart in the source and are kept apart here.

Tests used:
[1] = tested on: adult houseflies; test: Gas action against adult houseflies; type: in vivo, Musca domestica (housefly); settings: 10 mg active substance, 2 liter glass cylinder
Experimental: Using a pipette 10 mg of active substance were placed on a watch glass which was then covered with a wire mesh and placed in a 2 liter glass cylinder. Immediately thereafter 30 houseflies were introduced into the container which was then sealed.
A comparative test between compound 1 and PHOSDRIN (Registered Trade Mark) carried out according to this method gave the following mortality periods in minutes for 10%, 50% and 100% kill of the test animals.

[2] = tested on: one day old houseflies (Musca domestica); test: Ingestion test with one day old houseflies; type: in vivo; settings: read-out: % flies killed; for mortality at 0.4 ppm: 0.4 ppm in 30% sugar water; for mortality at 0.8 ppm: 0.8 ppm in 30% sugar water; for mortality at 1.5 ppm: 1.5 ppm in 30% sugar water; for mortality at 3 ppm: 3 ppm in 30% sugar water; for mortality at 6 ppm: 6 ppm in 30% sugar water; for mortality at 12 ppm: 12 ppm in 30% sugar water; for mortality at 25 ppm: 25 ppm in 30% sugar water; for mortality at 50 ppm: 50 ppm in 30% sugar water; for mortality at 100 ppm: 100 ppm in 30% sugar water
Experimental: Dilution series were manufactured with water. As solvent for the test preparations and similarly as a nutrition agent for the flies, 30% sugar water was used which had been coloured with chlorantin light red (as an attractant). The dilutions were tested with one day old houseflies. The 1, 2 and 4 hour controls enabled the speed of action to be determined. By means of the 24 hour control the limit concentration (action strength) could also be determined.

[3] = Acute oral toxicity (warm blooded toxicity) in rats; settings: rat, in vivo, po
[4] = tested on: rats; test: as above; settings: orally, rats

SMILES: COC(=O)C=C(C)OP(=O)(OC)OC [Phosdrin, reference compound]
- Mortality time for 10% of the houseflies ([1]; 10% kill): 22 min
- Mortality time for 50% of the houseflies ([1]; 50% kill): 25 min
- Mortality time for 100% of the houseflies ([1]; 100% kill): 30 min
- mortality at 0.4 ppm ([2]; 1 hour): 0%
- mortality at 0.4 ppm ([2]; 2 hours): 0%
- mortality at 0.4 ppm ([2]; 4 hours): 0%
- mortality at 0.4 ppm ([2]; 24 hours): 0%
- mortality at 0.8 ppm ([2]; 1 hour): 0%
- mortality at 0.8 ppm ([2]; 2 hours): 0%
- mortality at 0.8 ppm ([2]; 4 hours): 0%
- mortality at 0.8 ppm ([2]; 24 hours): 0%
- mortality at 1.5 ppm ([2]; 1 hour): 0%
- mortality at 1.5 ppm ([2]; 2 hours): 0%
- mortality at 1.5 ppm ([2]; 4 hours): 0%
- mortality at 1.5 ppm ([2]; 24 hours): 0%
- mortality at 3 ppm ([2]; 1 hour): 0%
- mortality at 3 ppm ([2]; 2 hours): 0%
- mortality at 3 ppm ([2]; 4 hours): 0%
- mortality at 3 ppm ([2]; 24 hours): 20%
- mortality at 6 ppm ([2]; 1 hour): 0%
- mortality at 6 ppm ([2]; 2 hours): 0%
- mortality at 6 ppm ([2]; 4 hours): 10%
- mortality at 6 ppm ([2]; 24 hours): 80%
- mortality at 12 ppm ([2]; 1 hour): 0%
- mortality at 12 ppm ([2]; 2 hours): 0%
- mortality at 12 ppm ([2]; 4 hours): 20%
- mortality at 12 ppm ([2]; 24 hours): 90%
- mortality at 25 ppm ([2]; 1 hour): 20%
- mortality at 25 ppm ([2]; 2 hours): 40%
- mortality at 25 ppm ([2]; 4 hours): 60%
- mortality at 25 ppm ([2]; 24 hours): 100%
- mortality at 50 ppm ([2]; 1 hour): 30%
- mortality at 50 ppm ([2]; 2 hours): 70%
- mortality at 50 ppm ([2]; 4 hours): 80%
- mortality at 50 ppm ([2]; 24 hours): 100%
- mortality at 100 ppm ([2]; 1 hour): 100%
- mortality at 100 ppm ([2]; 2 hours): 100%
- mortality at 100 ppm ([2]; 4 hours): 100%
- mortality at 100 ppm ([2]; 24 hours): 100%
- LD50 [3]: 3 to 7 mg/kg
- warm blooded toxicity LD50 [4]: 3-7 mg/kg body weight
